Measurements reported in ChEMBL document CHEMBL3885881, “DrugMatrix”.

Species on record: Rattus norvegicus
Assay: DrugMatrix - Regimen: Daily Repeat
Format: toxicity, organism-based, Sprague-Dawley
Design: regimen Daily Repeat, gender Male, age 6-8 weeks
Conditions: in vivo, po, route oral GAVAGE, […]; for ABSOLUTE BASOPHIL / ABSOLUTE EOSINOPHIL / ABSOLUTE LYMPHOCYTE / ABSOLUTE MONOCYTE / ABSOLUTE SEGMENTED NEUTROPHIL / BASOPHIL / EOSINOPHIL / ERYTHROCYTE COUNT / HEMATOCRIT / HEMOGLOBIN / LEUKOCYTE COUNT / LYMPHOCYTE / MEAN CORPUSCULAR HEMOGLOBIN / MEAN CORPUSCULAR HEMOGLOBIN CONCENTRATION / MEAN CORPUSCULAR VOLUME / MONOCYTE / NEUTROPHIL / NUCLEATED RED BLOOD CELLS / PLATELET COUNT: tissue Blood; for ALANINE AMINOTRANSFERASE / ALBUMIN / ALKALINE PHOSPHATASE / ASPARTATE AMINOTRANSFERASE / BLOOD UREA NITROGEN / CARBON DIOXIDE / CHLORIDE / CHOLESTEROL / CREATINE PHOSPHOKINASE / CREATININE / GLUCOSE / LACTATE DEHYDROGENASE / LIPASE / PHOSPHORUS / POTASSIUM / SODIUM / TOTAL BILIRUBIN / TOTAL PROTEIN / URIC ACID: tissue Plasma
[1] = 0 mg/kg, 72 h, dose level Control, time 3 day
[2] = 0 mg/kg, 120 h, dose level Control, time 5 day
[3] = 10 mg/kg, 72 h, dose level Low, time 3 day
[4] = 10 mg/kg, 120 h, dose level Low, time 5 day

SMILES: OC(Cn1cncn1)(Cn1cncn1)c1ccc(F)cc1F [FLUCONAZOLE]
- ABSOLUTE BASOPHIL [1]: 0 CELLS/uL
- ABSOLUTE EOSINOPHIL [1]: 104.17 CELLS/uL
- ABSOLUTE LYMPHOCYTE [1]: 14547 CELLS/uL
- ABSOLUTE MONOCYTE [1]: 292 CELLS/uL
- ABSOLUTE SEGMENTED NEUTROPHIL [1]: 1640.17 CELLS/uL
- BASOPHIL [1]: 0%
- EOSINOPHIL [1]: 0.67%
- ERYTHROCYTE COUNT [1]: 5.35 x10E6/uL
- HEMATOCRIT [1]: 33.67%
- HEMOGLOBIN [1]: 13.38 G/DL
- LEUKOCYTE COUNT [1]: 16.58 x10E3/uL
- LYMPHOCYTE [1]: 87.5%
- MEAN CORPUSCULAR HEMOGLOBIN [1]: 25.05 pg
- MEAN CORPUSCULAR HEMOGLOBIN CONCENTRATION [1]: 39.78 G/DL
- MEAN CORPUSCULAR VOLUME [1]: 62.97 fL
- MONOCYTE [1]: 1.83%
- NEUTROPHIL [1]: 10%
- NUCLEATED RED BLOOD CELLS [1]: 0 /100WBC
- PLATELET COUNT [1]: 1274.5 x10E3/uL
- ALANINE AMINOTRANSFERASE [1]: 76.83 u/L
- ALBUMIN [1]: 3.97 G/DL
- ALKALINE PHOSPHATASE [1]: 347 u/L
- ASPARTATE AMINOTRANSFERASE [1]: 97.17 u/L
- BLOOD UREA NITROGEN [1]: 14.33 mg/dL
- CARBON DIOXIDE [1]: 25.5 mmol/L
- CHLORIDE [1]: 100.33 MEQ/L
- CHOLESTEROL [1]: 68.67 mg/dL
- CREATINE PHOSPHOKINASE [1]: 659.17 u/L
- CREATININE [1]: 0.32 mg/dL
- GLUCOSE [1]: 160.67 mg/dL
- LACTATE DEHYDROGENASE [1]: 271.5 u/L
- LIPASE [1]: 11.67 u/L
- PHOSPHORUS [1]: 10.65 mg/dL
- POTASSIUM [1]: 5.95 MEQ/L
- SODIUM [1]: 139.65 MEQ/L
- TOTAL BILIRUBIN [1]: 0.2 mg/dL
- TOTAL PROTEIN [1]: 5.72 G/DL
- URIC ACID [1]: 1.37 mg/dL
- ABSOLUTE BASOPHIL [2]: 0 CELLS/uL
- ABSOLUTE EOSINOPHIL [2]: 331.5 CELLS/uL
- ABSOLUTE LYMPHOCYTE [2]: 15021.67 CELLS/uL
- ABSOLUTE MONOCYTE [2]: 376.5 CELLS/uL
- ABSOLUTE SEGMENTED NEUTROPHIL [2]: 3070.33 CELLS/uL
- BASOPHIL [2]: 0%
- EOSINOPHIL [2]: 1.83%
- ERYTHROCYTE COUNT [2]: 5.24 x10E6/uL
- HEMATOCRIT [2]: 33.22%
- HEMOGLOBIN [2]: 13.2 G/DL
- LEUKOCYTE COUNT [2]: 18.8 x10E3/uL
- LYMPHOCYTE [2]: 79.67%
- MEAN CORPUSCULAR HEMOGLOBIN [2]: 25.17 pg
- MEAN CORPUSCULAR HEMOGLOBIN CONCENTRATION [2]: 39.73 G/DL
- MEAN CORPUSCULAR VOLUME [2]: 63.38 fL
- MONOCYTE [2]: 2%
- NEUTROPHIL [2]: 16.5%
- NUCLEATED RED BLOOD CELLS [2]: 0 /100WBC
- PLATELET COUNT [2]: 1142.67 x10E3/uL
- ALANINE AMINOTRANSFERASE [2]: 52.5 u/L
- ALBUMIN [2]: 3.9 G/DL
- ALKALINE PHOSPHATASE [2]: 284.5 u/L
- ASPARTATE AMINOTRANSFERASE [2]: 81.33 u/L
- BLOOD UREA NITROGEN [2]: 16 mg/dL
- CARBON DIOXIDE [2]: 25.33 mmol/L
- CHLORIDE [2]: 99.5 MEQ/L
- CHOLESTEROL [2]: 74.83 mg/dL
- CREATINE PHOSPHOKINASE [2]: 448.33 u/L
- CREATININE [2]: 0.37 mg/dL
- GLUCOSE [2]: 164.17 mg/dL
- LACTATE DEHYDROGENASE [2]: 290.67 u/L
- LIPASE [2]: 6.83 u/L
- PHOSPHORUS [2]: 11.5 mg/dL
- POTASSIUM [2]: 6.28 MEQ/L
- SODIUM [2]: 139.5 MEQ/L
- TOTAL BILIRUBIN [2]: 0.13 mg/dL
- TOTAL PROTEIN [2]: 5.55 G/DL
- URIC ACID [2]: 1.12 mg/dL
- ABSOLUTE BASOPHIL [3]: 0 CELLS/uL
- ABSOLUTE EOSINOPHIL [3]: 105 CELLS/uL
- ABSOLUTE LYMPHOCYTE [3]: 3531.33 CELLS/uL
- ABSOLUTE MONOCYTE [3]: 187.33 CELLS/uL
- ABSOLUTE SEGMENTED NEUTROPHIL [3]: 2209.67 CELLS/uL
- BASOPHIL [3]: 0%
- EOSINOPHIL [3]: 1.67%
- ERYTHROCYTE COUNT [3]: 5.95 x10E6/uL
- HEMATOCRIT [3]: 39.17%
- HEMOGLOBIN [3]: 15.1 G/DL
- LEUKOCYTE COUNT [3]: 6.03 x10E3/uL
- LYMPHOCYTE [3]: 58%
- MEAN CORPUSCULAR HEMOGLOBIN [3]: 25.67 pg
- MEAN CORPUSCULAR HEMOGLOBIN CONCENTRATION [3]: 38.63 G/DL
- MEAN CORPUSCULAR VOLUME [3]: 66.27 fL
- MONOCYTE [3]: 3%
- NEUTROPHIL [3]: 37.33%
- NUCLEATED RED BLOOD CELLS [3]: 0 /100WBC
- PLATELET COUNT [3]: 1032.33 x10E3/uL
- ALANINE AMINOTRANSFERASE [3]: 59.33 u/L
- ALBUMIN [3]: 4.63 G/DL
- ALKALINE PHOSPHATASE [3]: 452.67 u/L
- ASPARTATE AMINOTRANSFERASE [3]: 96 u/L
- BLOOD UREA NITROGEN [3]: 19.33 mg/dL
- CARBON DIOXIDE [3]: 20.67 mmol/L
- CHLORIDE [3]: 101.33 MEQ/L
- CHOLESTEROL [3]: 45.67 mg/dL
- CREATINE PHOSPHOKINASE [3]: 639.33 u/L
- CREATININE [3]: 0.14 mg/dL
- GLUCOSE [3]: 174 mg/dL
- LACTATE DEHYDROGENASE [3]: 123 u/L
- LIPASE [3]: 24.67 u/L
- PHOSPHORUS [3]: 11.63 mg/dL
- POTASSIUM [3]: 6.15 MEQ/L
- SODIUM [3]: 142.57 MEQ/L
- TOTAL BILIRUBIN [3]: 0.23 mg/dL
- TOTAL PROTEIN [3]: 6.43 G/DL
- URIC ACID [3]: 1.47 mg/dL
- ABSOLUTE BASOPHIL [4]: 0 CELLS/uL
- ABSOLUTE EOSINOPHIL [4]: 0 CELLS/uL
- ABSOLUTE LYMPHOCYTE [4]: 10059.67 CELLS/uL
- ABSOLUTE MONOCYTE [4]: 397 CELLS/uL
- ABSOLUTE SEGMENTED NEUTROPHIL [4]: 1576.67 CELLS/uL
- BASOPHIL [4]: 0%
- EOSINOPHIL [4]: 0%
- ERYTHROCYTE COUNT [4]: 6.01 x10E6/uL
- HEMATOCRIT [4]: 38.4%
- HEMOGLOBIN [4]: 14.77 G/DL
- LEUKOCYTE COUNT [4]: 12.03 x10E3/uL
- LYMPHOCYTE [4]: 83.33%
- MEAN CORPUSCULAR HEMOGLOBIN [4]: 24.57 pg
- MEAN CORPUSCULAR HEMOGLOBIN CONCENTRATION [4]: 38.5 G/DL
- MEAN CORPUSCULAR VOLUME [4]: 63.9 fL
- MONOCYTE [4]: 3.33%
- NEUTROPHIL [4]: 13.33%
- NUCLEATED RED BLOOD CELLS [4]: 0.33 /100WBC
- PLATELET COUNT [4]: 1300 x10E3/uL
- ALANINE AMINOTRANSFERASE [4]: 78.67 u/L
- ALBUMIN [4]: 4.23 G/DL
- ALKALINE PHOSPHATASE [4]: 452.67 u/L
- ASPARTATE AMINOTRANSFERASE [4]: 86.67 u/L
- BLOOD UREA NITROGEN [4]: 10.67 mg/dL
- CARBON DIOXIDE [4]: 27 mmol/L
- CHLORIDE [4]: 100.67 MEQ/L
- CHOLESTEROL [4]: 56 mg/dL
- CREATINE PHOSPHOKINASE [4]: 230.33 u/L
- CREATININE [4]: 0.11 mg/dL
- GLUCOSE [4]: 169.67 mg/dL
- LACTATE DEHYDROGENASE [4]: 181.33 u/L
- LIPASE [4]: 6.67 u/L
- PHOSPHORUS [4]: 11.83 mg/dL
- POTASSIUM [4]: 5.55 MEQ/L
- SODIUM [4]: 141.67 MEQ/L
- TOTAL BILIRUBIN [4]: 0.2 mg/dL
- TOTAL PROTEIN [4]: 6.23 G/DL
- URIC ACID [4]: 1.3 mg/dL
